Measured values: the NIST ThermoML archive (doi:10.1021/je300405a)

Conditions: Liquid; for speed of sound: Pulse-echo method; for mass density: Vibrating tube method

CCCCCCCCCC(=O)OC [methyl decanoate]
Conditions	mass density [kg/m3]	speed of sound [m/s]
283.15 K, 101.3 kPa	–	1362.6
283.15 K, 10000 kPa	–	1408.9
283.15 K, 20000 kPa	–	1452.2
283.15 K, 30000 kPa	–	1493.2
283.15 K, 40000 kPa	–	1531.7
283.15 K, 50000 kPa	–	1568
283.15 K, 60000 kPa	–	1602.6
283.15 K, 70000 kPa	–	1634.5
283.15 K, 80000 kPa	–	1666.4
283.15 K, 90000 kPa	–	1696.9
283.15 K, 100000 kPa	–	1726.9
283.15 K, 110000 kPa	–	1755.2
283.15 K, 120000 kPa	–	1783.4
283.15 K, 130000 kPa	–	1809.5
283.15 K, 140000 kPa	–	1835.9
293.15 K, 101.3 kPa	872.05	–
293.15 K, 10000 kPa	878.88	–
293.15 K, 20000 kPa	885.04	–
293.15 K, 30000 kPa	890.91	–
293.15 K, 40000 kPa	896.46	–
293.15 K, 50000 kPa	901.66	–
293.15 K, 60000 kPa	906.63	–
293.15 K, 70000 kPa	911.3	–
293.15 K, 80000 kPa	915.52	–
293.15 K, 90000 kPa	920.05	–
293.15 K, 100000 kPa	924.3	–
303.15 K, 101.3 kPa	863.6	1287.7
303.15 K, 10000 kPa	870.96	1339.2
303.15 K, 20000 kPa	877.43	1385.8
303.15 K, 30000 kPa	883.54	1429.6
303.15 K, 40000 kPa	889.26	1470.3
303.15 K, 50000 kPa	894.61	1508.7
303.15 K, 60000 kPa	899.63	1544.9
303.15 K, 70000 kPa	904.55	1580.2
303.15 K, 80000 kPa	909.11	1614.1
303.15 K, 90000 kPa	913.59	1646.1
303.15 K, 100000 kPa	917.87	1676.9
303.15 K, 110000 kPa	–	1706.8
303.15 K, 120000 kPa	–	1735.1
303.15 K, 130000 kPa	–	1762.8
303.15 K, 140000 kPa	–	1789.2
303.15 K, 150000 kPa	–	1815.2
303.15 K, 170000 kPa	–	1864.9
303.15 K, 190000 kPa	–	1912.7
303.15 K, 210000 kPa	–	1957.6
313.15 K, 101.3 kPa	855.85	–
313.15 K, 10000 kPa	863.12	–
313.15 K, 20000 kPa	869.91	–
313.15 K, 30000 kPa	876.23	–
313.15 K, 40000 kPa	882.19	–
313.15 K, 50000 kPa	887.77	–
313.15 K, 60000 kPa	893.04	–
313.15 K, 70000 kPa	898.12	–
313.15 K, 80000 kPa	902.9	–
313.15 K, 90000 kPa	907.5	–
313.15 K, 100000 kPa	911.9	–
323.15 K, 101.3 kPa	847.65	1214.8
323.15 K, 10000 kPa	855.36	1269.1
323.15 K, 20000 kPa	862.49	1319.3
323.15 K, 30000 kPa	869.02	1365.7
323.15 K, 40000 kPa	875.03	1409
323.15 K, 50000 kPa	880.76	1449.5
323.15 K, 60000 kPa	886.55	1487.8
323.15 K, 70000 kPa	891.71	1524
323.15 K, 80000 kPa	896.69	1558.3
323.15 K, 90000 kPa	901.4	1591.2
323.15 K, 100000 kPa	905.81	1623.3
323.15 K, 110000 kPa	–	1653.9
323.15 K, 120000 kPa	–	1684.6
323.15 K, 130000 kPa	–	1711.9
323.15 K, 140000 kPa	–	1739.6
323.15 K, 150000 kPa	–	1765.9
323.15 K, 170000 kPa	–	1817
323.15 K, 190000 kPa	–	1864.8
323.15 K, 210000 kPa	–	1910.9
333.15 K, 101.3 kPa	839.36	–
333.15 K, 10000 kPa	847.25	–
333.15 K, 20000 kPa	854.44	–
333.15 K, 30000 kPa	861.45	–
333.15 K, 40000 kPa	867.94	–
333.15 K, 50000 kPa	873.98	–
333.15 K, 60000 kPa	879.63	–
333.15 K, 70000 kPa	885.02	–
333.15 K, 80000 kPa	890.12	–
333.15 K, 90000 kPa	894.95	–
333.15 K, 100000 kPa	899.64	–
343.15 K, 101.3 kPa	830.82	1142.8
343.15 K, 10000 kPa	839.54	1202.4
343.15 K, 20000 kPa	847.61	1255.9
343.15 K, 30000 kPa	854.58	1304.9
343.15 K, 40000 kPa	861.37	1350.5
343.15 K, 50000 kPa	867.59	1393.5
343.15 K, 60000 kPa	873.44	1433.7
343.15 K, 70000 kPa	879.04	1471.7
343.15 K, 80000 kPa	884.27	1508.2
343.15 K, 90000 kPa	889.44	1541.7
343.15 K, 100000 kPa	894.26	1574.1
343.15 K, 110000 kPa	–	1606
343.15 K, 120000 kPa	–	1636.2
343.15 K, 130000 kPa	–	1665.9
343.15 K, 140000 kPa	–	1694
343.15 K, 150000 kPa	–	1721.2
343.15 K, 170000 kPa	–	1773.2
343.15 K, 190000 kPa	–	1822
343.15 K, 210000 kPa	–	1868.7
353.15 K, 101.3 kPa	822.35	–
353.15 K, 10000 kPa	831.43	–
353.15 K, 20000 kPa	839.8	–
353.15 K, 30000 kPa	847.35	–
353.15 K, 40000 kPa	854.31	–
353.15 K, 50000 kPa	860.82	–
353.15 K, 60000 kPa	866.96	–
353.15 K, 70000 kPa	872.65	–
353.15 K, 80000 kPa	878.11	–
353.15 K, 90000 kPa	883.27	–
353.15 K, 100000 kPa	888.25	–
363.15 K, 101.3 kPa	814.51	–
363.15 K, 10000 kPa	823.75	1138.5
363.15 K, 20000 kPa	832.39	1195.9
363.15 K, 30000 kPa	840.33	1247.9
363.15 K, 40000 kPa	847.71	1296.3
363.15 K, 50000 kPa	854.36	1341.1
363.15 K, 60000 kPa	860.65	1382.7
363.15 K, 70000 kPa	866.47	1421.6
363.15 K, 80000 kPa	872.03	1458.4
363.15 K, 90000 kPa	877.31	1493.8
363.15 K, 100000 kPa	882.47	1527.4
363.15 K, 110000 kPa	–	1559.7
363.15 K, 120000 kPa	–	1590.9
363.15 K, 130000 kPa	–	1620.7
363.15 K, 140000 kPa	–	1649.4
363.15 K, 150000 kPa	–	1677.2
363.15 K, 170000 kPa	–	1730.6
363.15 K, 190000 kPa	–	1780.4
363.15 K, 210000 kPa	–	1827.2
373.15 K, 101.3 kPa	805.43	–
373.15 K, 10000 kPa	816.05	–
373.15 K, 20000 kPa	825.16	–
373.15 K, 30000 kPa	833.45	–
373.15 K, 40000 kPa	841.07	–
373.15 K, 50000 kPa	848.03	–
373.15 K, 60000 kPa	854.82	–
373.15 K, 70000 kPa	860.9	–
373.15 K, 80000 kPa	866.94	–
373.15 K, 90000 kPa	872.3	–
373.15 K, 100000 kPa	877.6	–
383.15 K, 101.3 kPa	797.49	–
383.15 K, 10000 kPa	808.37	1077.4
383.15 K, 20000 kPa	818.07	1138.6
383.15 K, 30000 kPa	826.67	1193.5
383.15 K, 40000 kPa	834.58	1244.5
383.15 K, 50000 kPa	841.72	1291.3
383.15 K, 60000 kPa	848.65	1334.9
383.15 K, 70000 kPa	855.07	1375.4
383.15 K, 80000 kPa	861.06	1414.2
383.15 K, 90000 kPa	866.74	1450.6
383.15 K, 100000 kPa	872.09	1485.3
383.15 K, 110000 kPa	–	1518.9
383.15 K, 120000 kPa	–	1550.9
383.15 K, 130000 kPa	–	1581.2
383.15 K, 140000 kPa	–	1610.8
383.15 K, 150000 kPa	–	1641
383.15 K, 170000 kPa	–	1692.7
383.15 K, 190000 kPa	–	1743
383.15 K, 210000 kPa	–	1791.1
393.15 K, 101.3 kPa	788.67	–
393.15 K, 10000 kPa	800.06	–
393.15 K, 20000 kPa	810.12	–
393.15 K, 30000 kPa	819.15	–
393.15 K, 40000 kPa	827.46	–
393.15 K, 50000 kPa	834.97	–
393.15 K, 60000 kPa	842.04	–
393.15 K, 70000 kPa	848.64	–
393.15 K, 80000 kPa	854.73	–
393.15 K, 90000 kPa	860.61	–
393.15 K, 100000 kPa	866.13	–
403.15 K, 10000 kPa	–	1017.7
403.15 K, 20000 kPa	–	1083.2
403.15 K, 30000 kPa	–	1141.7
403.15 K, 40000 kPa	–	1194.7
403.15 K, 50000 kPa	–	1242.9
403.15 K, 60000 kPa	–	1288.1
403.15 K, 70000 kPa	–	1330.6
403.15 K, 80000 kPa	–	1370.3
403.15 K, 90000 kPa	–	1407.7
403.15 K, 100000 kPa	–	1442.8
403.15 K, 110000 kPa	–	1476.6
403.15 K, 120000 kPa	–	1509.7
403.15 K, 130000 kPa	–	1541.7
403.15 K, 140000 kPa	–	1571.6
403.15 K, 150000 kPa	–	1600.1
403.15 K, 170000 kPa	–	1655.5
403.15 K, 190000 kPa	–	1706.6
403.15 K, 210000 kPa	–	1754.5
